PubChem BioAssay AID2060488 (Molecular Pharmacology Branch, DTP, NCI, 2025)

System: 966289-007-R4-J1-PDC complex spheroid viability
Test: Anticancer human tumor 966289-007-R4-J1-PDC patient-derived pancreatic adenocarcinoma cell line growth inhibition [GQUAD]
Details: for IC50: curve of first compound; for viability, T/C: stronger effect = lower value
Excerpt: DNA G-quadruplex Stabilizer Agents in Combinations in Complex Spheroids
A high-throughput screen of multi-cell type tumor spheroids was designed to identify active combinations of DNA G-quadruplex stabilizer agents and targeted small molecules. Complex spheroids include a stromal component modeled by human endothelial cells (HUVEC) and fibroblasts modeled by human mesenchymal stem cells (MSCs). The concentration ranges selected for each drug and investigational agent were based upon clinically achievable concentrations if the clinical Cmax of the agent was known.
Compounds. The drugs and investigational agents: pidnarulex (CX-5461; NSC782164), APTO-253 (NSC789042), BRACO-19 (NSC847499), peposertib (NSC802822), ceralasertib (NSC780249), elimusertib (NSC800525), camonsertib (NSC841442), AZD-1390 (NSC803789), olaparib (NSC753686), talazoparib (NSC767125), ART-558 (NSC835418), sotorasib (NSC818433), MRTX-1133 (NSC836407), SN-38 (NSC673596), topotecan (NSC609699), etoposide (NSC141540), doxorubicin (NSC123127), gemcitabine (NSC613327), 5-fluorouracil (NSC19893), paclitaxel (NSC125973), vemurafenib (NSC761431), panobinostat (NSC761190), R-306465 (JNJ-16241199; NSC773264), adavosertib (NSC754352), TP-3654 (NSC805149), carboplatin (NSC241240), KSQ-4279 (NSC840948), and staurosporine (NSC755774) were obtained from the National Cancer Institute (NCI) Developmental Therapeutics Program Chemical Repository (34). The FDA-approved anticancer drug set is available from the NCI Developmental Therapeutics Program. […] The stock solutions were prepared in dimethyl sulfoxide (DMSO, Sigma-Aldrich, St. Louis, MO, cat. D2650) at 800-fold the tested concentration and stored at -70 degrees C prior to their use. All drugs and investigational agents were tested over a range starting from a high concentration at or near the clinical Cmax and decreasing in half-log increments. If the clinical Cmax for an agent had not been determined, the highest concentration tested was 10 microM.
2.3 Cell Culture. All cells were maintained in an incubator at 37 degrees C and 5% CO2 with 95% humidity. The PDC lines were cultured according to standard operating procedures established by the NCI PDMR. All PDCs were thawed and cultured in Matrigel-coated flasks prepared with a working solution of 1X Ham's F-12 nutrient mix, without supplementation (Invitrogen, cat. 11765054), 100 U/mL penicillin-streptomycin (Invitrogen, cat. 15140122), and 2.5% Matrigel (Corning Inc., cat. 354248) for the first three passages. The 857933-349-R-J2-PDC line was cultured in 6C/Colon 1B media, which includes advanced DMEM/F-12 (Thermo Fisher Scientific, cat. 12634028), 10 mM HEPES (Thermo Fisher Scientific, cat. 15630080), 1X GlutaMAX supplement (Thermo Fisher Scientific, cat. 35050061), 0.1 mg/mL primocin (InvivoGen, cat. ant-pm-2), 10% defined fetal bovine serum, heat inactivated (HyClone Laboratories Inc., cat. SH30070.03HI), 50% L-WRN conditioned media (ATCC, cat. CRL-3276), 1.25 mM N-Acetyl-L-cysteine (Sigma-Aldrich, cat. A9165), 10 mM nicotinamide (Sigma-Aldrich, cat. N0636), 1X B-27 supplement (Thermo Fisher Scientific, cat. 17504044), 1X N-2 supplement (Thermo Fisher Scientific, cat. 17502048), 10 microM Y-27632 dihydrochloride (Tocris Bioscience, cat. 1254), and 50 ng/mL human EGF recombinant protein (Thermo Fisher Scientific, cat. PHG0311). The 485176-168-R4-J1-PDC line was cultured in Panc media, which includes all 6C/Colon 1B media components plus 100 ng/mL human FGF-10 (Thermo Fisher Scientific, cat. 100-26), 500 nM SB-431542 (Selleckchem, cat. S1067), and gastrin (Tocris, cat. 3006).
[…]

[1] = second compound 0.0316 µM, first compound 0.0316 µM
[2] = second compound 0.0316 µM, first compound 0.316 µM
[3] = second compound 0.1 µM, first compound 0.0316 µM
[4] = second compound 0.1 µM, first compound 0.316 µM
[5] = second compound 0.316 µM, first compound 0.0316 µM
[6] = second compound 0.316 µM, first compound 0.316 µM
[7] = second compound 1 µM, first compound 0.0316 µM
[8] = second compound 1 µM, first compound 0.316 µM
[9] = second compound 3.16 µM, first compound 0.0316 µM
[10] = second compound 3.16 µM, first compound 0.316 µM
[11] = second compound 10 µM, first compound 0.0316 µM
[12] = second compound 10 µM, first compound 0.316 µM
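Also: spheroids exposed to the agents for seven days before readout.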
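For viability, T/C in this document: percent viability relative to DMSO vehicle control wells taken as 100%.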

Cc1cccc(N(C)C(=O)C2C(O)CCN2c2nc(C)cc(C(F)(F)F)c2C#N)c1 (centres undefined) + CN(C)c1ccc(Nc2c3ccc(NC(=O)CCN4CCCC4)cc3nc3cc(NC(=O)CCN4CCCC4)ccc23)cc1
IC50 (second compound 0.0316 µM): > 10 µM | IC50 (second compound 0.1 µM): > 10 µM | IC50 (second compound 0.316 µM): > 10 µM | IC50 (second compound 1 µM): > 10 µM | IC50 (second compound 3.16 µM): > 10 µM | IC50 (second compound 10 µM): 1.72 µM | viability, T/C [1]: 107% | viability, T/C (second compound 0.0316 µM, first compound 0.1 µM): 94.7% | viability, T/C [2]: 106% | viability, T/C (second compound 0.0316 µM, first compound 1 µM): 95.8% | viability, T/C (second compound 0.0316 µM, first compound 3.16 µM): 101% | viability, T/C (second compound 0.0316 µM, first compound 10 µM): 99.3% | viability, T/C [3]: 107% | viability, T/C (second compound 0.1 µM, first compound 0.1 µM): 98.5% | viability, T/C [4]: 103% | viability, T/C (second compound 0.1 µM, first compound 1 µM): 99.7% | viability, T/C (second compound 0.1 µM, first compound 3.16 µM): 102% | viability, T/C (second compound 0.1 µM, first compound 10 µM): 107% | viability, T/C [5]: 95.8% | viability, T/C (second compound 0.316 µM, first compound 0.1 µM): 100% | viability, T/C [6]: 105% | viability, T/C (second compound 0.316 µM, first compound 1 µM): 101% | viability, T/C (second compound 0.316 µM, first compound 3.16 µM): 102% | viability, T/C (second compound 0.316 µM, first compound 10 µM): 100% | viability, T/C [7]: 102% | viability, T/C (second compound 1 µM, first compound 0.1 µM): 105% | viability, T/C [8]: 107% | viability, T/C (second compound 1 µM, first compound 1 µM): 101% | viability, T/C (second compound 1 µM, first compound 3.16 µM): 99.6% | viability, T/C (second compound 1 µM, first compound 10 µM): 109% | viability, T/C [9]: 104% | viability, T/C (second compound 3.16 µM, first compound 0.1 µM): 106% | viability, T/C [10]: 101% | viability, T/C (second compound 3.16 µM, first compound 1 µM): 97.3% | viability, T/C (second compound 3.16 µM, first compound 3.16 µM): 102% | viability, T/C (second compound 3.16 µM, first compound 10 µM): 104% | viability, T/C [11]: 105% | viability, T/C (second compound 10 µM, first compound 0.1 µM): 103% | viability, T/C [12]: 96.1% | viability, T/C (second compound 10 µM, first compound 1 µM): 72.2% | viability, T/C (second compound 10 µM, first compound 3.16 µM): 25.2% | viability, T/C (second compound 10 µM, first compound 10 µM): 7.13%

Cn1ncnc1[C@H]1c2n[nH]c(=O)c3cc(F)cc(c23)N[C@@H]1c1ccc(F)cc1 + CN(C)c1ccc(Nc2c3ccc(NC(=O)CCN4CCCC4)cc3nc3cc(NC(=O)CCN4CCCC4)ccc23)cc1
IC50 (second compound 0.0316 µM): 0.161 µM | IC50 (second compound 0.1 µM): 0.164 µM | IC50 (second compound 0.316 µM): 0.168 µM | IC50 (second compound 1 µM): 0.137 µM | IC50 (second compound 3.16 µM): 0.104 µM | IC50 (second compound 10 µM): 0.0475 µM | viability, T/C (second compound 0.0316 µM, first compound 0.000999 µM): 107% | viability, T/C (second compound 0.0316 µM, first compound 0.00316 µM): 101% | viability, T/C (second compound 0.0316 µM, first compound 0.00999 µM): 109% | viability, T/C [1]: 104% | viability, T/C (second compound 0.0316 µM, first compound 0.0999 µM): 71.7% | viability, T/C [2]: 19% | viability, T/C (second compound 0.1 µM, first compound 0.000999 µM): 105% | viability, T/C (second compound 0.1 µM, first compound 0.00316 µM): 101% | viability, T/C (second compound 0.1 µM, first compound 0.00999 µM): 105% | viability, T/C [3]: 105% | viability, T/C (second compound 0.1 µM, first compound 0.0999 µM): 75.2% | viability, T/C [4]: 16.9% | viability, T/C (second compound 0.316 µM, first compound 0.000999 µM): 95.1% | viability, T/C (second compound 0.316 µM, first compound 0.00316 µM): 99.7% | viability, T/C (second compound 0.316 µM, first compound 0.00999 µM): 104% | viability, T/C [5]: 107% | viability, T/C (second compound 0.316 µM, first compound 0.0999 µM): 73.3% | viability, T/C [6]: 21.7% | viability, T/C (second compound 1 µM, first compound 0.000999 µM): 95.9% | viability, T/C (second compound 1 µM, first compound 0.00316 µM): 97.2% | viability, T/C (second compound 1 µM, first compound 0.00999 µM): 104% | viability, T/C [7]: 106% | viability, T/C (second compound 1 µM, first compound 0.0999 µM): 62.5% | viability, T/C [8]: 16.9% | viability, T/C (second compound 3.16 µM, first compound 0.000999 µM): 91.5% | viability, T/C (second compound 3.16 µM, first compound 0.00316 µM): 109% | viability, T/C (second compound 3.16 µM, first compound 0.00999 µM): 109% | viability, T/C [9]: 104% | viability, T/C (second compound 3.16 µM, first compound 0.0999 µM): 51.2% | viability, T/C [10]: 13% | viability, T/C (second compound 10 µM, first compound 0.000999 µM): 103% | viability, T/C (second compound 10 µM, first compound 0.00316 µM): 104% | viability, T/C (second compound 10 µM, first compound 0.00999 µM): 102% | viability, T/C [11]: 69.1% | viability, T/C (second compound 10 µM, first compound 0.0999 µM): 15% | viability, T/C [12]: 5.65%
